The values below come from PubChem BioAssay (NCI).

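These data come from cells grown in 96-well plates and exposed to compound for 48 hours at five concentrations. TGI: concentration producing complete growth inhibition.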

Among the test systems are UACC-257 melanoma; SNB-75 CNS; HOP-62 NSCLC; COLO 205 colon; MDA-N; MOLT-4 leukemia; M14 melanoma; MDA-MB-435; OVCAR-3 ovarian; HT29 colon; NCI-H23 lung; U251 CNS; K-562 leukemia; HOP-92 NSCLC; UACC-62 melanoma; LOX IMVI melanoma; ACHN renal; SR leukemia; MALME-3M melanoma.
Common to all, as to assay: DTP human tumour cell line panel, 48 h

Usually TGI stands for the concentration at which net growth stops. A high value points to less potent growth arrest. On to `Cc1cc2c(c(C=Nc3ccc([N+](=O)[O-])cc3)c1)OC1(C=C2)Oc2ccccc2C(=O)N1C` (configuration not stated), for which the TGI in the experiment on UACC-257 melanoma was 42.4 µM; in the experiment on SNB-75 CNS, 51.8 µM; in the experiment on HOP-62 NSCLC, 82.9 µM; with COLO 205 colon it was 54.3 µM; in the experiment with MDA-N, above 100 µM; in the experiment with MOLT-4 leukemia it was 35 µM. Further, the TGI with M14 melanoma is 57.8 µM; in the experiment on MDA-MB-435 it was above 100 µM; with OVCAR-3 ovarian it was 60.9 µM; with HT29 colon, 36.3 µM; in the experiment on NCI-H23 lung it was 35.7 µM; in the experiment with U251 CNS it was 42.8 µM. Besides, the TGI with K-562 leukemia amounted to 91.5 µM; in the experiment with HOP-92 NSCLC it was 50.9 µM; in the experiment on UACC-62 melanoma, 34.9 µM; in the experiment on LOX IMVI melanoma, 27.1 µM; with ACHN renal it was 50.5 µM; in the experiment on SR leukemia, 55.3 µM.
As for `OCC1OC(Oc2cc(O)cc(/C=C\c3ccc(O)cc3)c2)C(O)C(O)C1O` (configuration not stated), the TGI in the experiment with UACC-257 melanoma, in the experiment with SNB-75 CNS, in the experiment with HOP-62 NSCLC, with MDA-N, with MOLT-4 leukemia and in the experiment with MDA-MB-435 was above 100 µM throughout. For the same compound, the concentration for total growth inhibition (TGI) with OVCAR-3 ovarian, in the experiment with HT29 colon, with U251 CNS, with K-562 leukemia, with HOP-92 NSCLC and with UACC-62 melanoma was above 100 µM each time. Also, the TGI in the experiment on LOX IMVI melanoma, in the experiment on ACHN renal and in the experiment on SR leukemia was above 100 µM each time.
As for `CCOP(=O)(OCC)C1CC(O)CN1OC(=O)C(C)(C)C` (configuration not stated), the concentration for total growth inhibition (TGI) with UACC-257 melanoma, in the experiment with SNB-75 CNS, with HOP-62 NSCLC, in the experiment on COLO 205 colon, with MDA-N and with MOLT-4 leukemia was above 100 µM each time. In addition, the concentration for total growth inhibition (TGI) with M14 melanoma, in the experiment on MDA-MB-435, in the experiment on OVCAR-3 ovarian, with HT29 colon, in the experiment on MALME-3M melanoma and in the experiment on NCI-H23 lung was above 100 µM in each case. The TGI in the experiment on U251 CNS, with K-562 leukemia, with UACC-62 melanoma, in the experiment with LOX IMVI melanoma, in the experiment on ACHN renal and in the experiment on SR leukemia was above 100 µM in each case.
For `CN(/N=C/c1cccs1)c1ccc(Cl)cc1[N+](=O)[O-]`, the total growth inhibition concentration (TGI) with UACC-257 melanoma, in the experiment with SNB-75 CNS, in the experiment on HOP-62 NSCLC, in the experiment with MDA-N, with MOLT-4 leukemia and with M14 melanoma was above 100 µM each time. In addition, the TGI with MDA-MB-435 was above 100 µM; with OVCAR-3 ovarian, above 100 µM; in the experiment with HT29 colon, above 100 µM; with NCI-H23 lung it was above 100 µM; with U251 CNS it was 59.5 µM; in the experiment with K-562 leukemia, above 100 µM. Moreover, the TGI in the experiment with UACC-62 melanoma, in the experiment with ACHN renal and in the experiment with SR leukemia was above 100 µM throughout.
Consider `OCC1NCC(O)C(O)C1O` (configuration not stated), for which the total growth inhibition concentration (TGI) in the experiment with UACC-257 melanoma, in the experiment on SNB-75 CNS, in the experiment with HOP-62 NSCLC, with COLO 205 colon, with MDA-N and in the experiment with MOLT-4 leukemia was above 100 µM throughout. The TGI with M14 melanoma was above 100 µM; in the experiment on MDA-MB-435 it was above 100 µM; in the experiment with OVCAR-3 ovarian, above 100 µM; with HT29 colon, above 100 µM; in the experiment on MALME-3M melanoma it was 55.8 µM; in the experiment with NCI-H23 lung, above 100 µM. The concentration for total growth inhibition (TGI) in the experiment with U251 CNS, with HOP-92 NSCLC, in the experiment with UACC-62 melanoma, in the experiment with ACHN renal and in the experiment on SR leukemia was above 100 µM in each case.
As to `CCOC(=O)n1[nH]c(=O)n(-c2ccccc2)c1=O`, the concentration for total growth inhibition (TGI) with UACC-257 melanoma, in the experiment on SNB-75 CNS, in the experiment on HOP-62 NSCLC, with COLO 205 colon, in the experiment with MDA-N and in the experiment with MOLT-4 leukemia was above 100 µM throughout. Moreover, the TGI in the experiment on M14 melanoma, in the experiment on MDA-MB-435, in the experiment on OVCAR-3 ovarian, in the experiment with HT29 colon, in the experiment on MALME-3M melanoma and in the experiment with NCI-H23 lung was above 100 µM throughout. Also, the total growth inhibition concentration (TGI) in the experiment on U251 CNS, in the experiment on K-562 leukemia, in the experiment on UACC-62 melanoma, with LOX IMVI melanoma, in the experiment with ACHN renal and with SR leukemia was above 100 µM each time.
`O=C1C2=Cc3ccccc3OC2(O)Oc2cc(O)ccc21` (configuration not stated): the TGI in the experiment on UACC-257 melanoma, in the experiment with SNB-75 CNS, in the experiment on HOP-62 NSCLC, in the experiment on COLO 205 colon, in the experiment on MDA-N and in the experiment with MOLT-4 leukemia was above 100 µM throughout. In addition, the TGI in the experiment with M14 melanoma, in the experiment on MDA-MB-435, in the experiment on OVCAR-3 ovarian, in the experiment with HT29 colon, with MALME-3M melanoma and in the experiment with NCI-H23 lung was above 100 µM in each case. The total growth inhibition concentration (TGI) in the experiment on U251 CNS, with K-562 leukemia, with HOP-92 NSCLC, with UACC-62 melanoma, in the experiment on LOX IMVI melanoma and in the experiment on ACHN renal was above 100 µM each time.
In the case of `Oc1c2cc(Br)cc1CCc1cc(Br)cc(c1O)CC2`, the TGI with UACC-257 melanoma is 55.6 µM; in the experiment with SNB-75 CNS, 88.3 µM; in the experiment on HOP-62 NSCLC, 65.7 µM; with COLO 205 colon it was 27.7 µM; in the experiment on MDA-N, above 100 µM; in the experiment on MOLT-4 leukemia, above 100 µM. Also, the total growth inhibition concentration (TGI) in the experiment with M14 melanoma was 36.7 µM; in the experiment on MDA-MB-435, above 100 µM; with OVCAR-3 ovarian it was 48.8 µM; in the experiment on HT29 colon, 35.9 µM; in the experiment on MALME-3M melanoma, above 100 µM; with NCI-H23 lung, above 100 µM. Moreover, the TGI in the experiment on U251 CNS is 65.8 µM; with K-562 leukemia it was above 100 µM; with UACC-62 melanoma it was 46 µM; in the experiment with LOX IMVI melanoma, 31.3 µM; with ACHN renal it was above 100 µM; with SR leukemia, above 100 µM.
